From PMC6934184, “Selective DNA-PKcs inhibition extends the therapeutic index of localized radiotherapy and chemotherapy” (The Journal of Clinical Investigation, 2019)

Target: T1, MST4 (Homo sapiens, UniProt Q9P289)
T1 construct: purchased Thermo Fisher Scientific (Life Technologies) SelectScreen
Assay: SelectScreen Z'LYTE
Format: biochemical
Summary of the method: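 Percent values come from Thermo SelectScreen profiling of NU5455, combining activity and binding assays. CSF1R was run in Z'LYTE format at Km app ATP, and CAMK1 in Adapta format with ATP listed at 10.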

T1 sequence (Q9P289 whole entry): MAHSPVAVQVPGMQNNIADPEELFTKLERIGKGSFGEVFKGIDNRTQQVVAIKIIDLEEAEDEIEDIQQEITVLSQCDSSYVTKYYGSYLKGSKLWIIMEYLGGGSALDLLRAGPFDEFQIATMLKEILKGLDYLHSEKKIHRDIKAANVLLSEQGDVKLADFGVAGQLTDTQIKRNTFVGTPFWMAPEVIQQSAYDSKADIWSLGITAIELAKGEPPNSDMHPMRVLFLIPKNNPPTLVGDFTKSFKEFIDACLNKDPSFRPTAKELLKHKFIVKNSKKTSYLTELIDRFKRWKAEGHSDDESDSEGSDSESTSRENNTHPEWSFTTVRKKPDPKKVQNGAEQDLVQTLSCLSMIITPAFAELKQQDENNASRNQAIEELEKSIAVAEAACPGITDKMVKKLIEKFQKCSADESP

`CN(C(=O)CN1CCOCC1)c1ccc2sc3c(-c4cccc5c(=O)cc(N6CC7CCC(C6)O7)oc45)cccc3c2c1` [NU5455] showed an inhibition at 1 µM of 6.9%.
